From PMC7015960, “Effect of rifampin and itraconazole on the pharmacokinetics of zanubrutinib (a Bruton's tyrosine kinase inhibitor) in Asian and non-Asian healthy subjects” (Cancer Chemotherapy and Pharmacology, 2019)
Where “and” joins values, the source holds several entries; their conditions need not be identical. Identical values can stand only once. Like-named read-outs stand apart in the source and are kept apart here. Blank lines part the entries; values can stand above or below the compound they belong to.

Key:
[1] = Part A: single-dose PK of 320 mg zanubrutinib alone and with steady-state rifampin (CYP3A induction) in healthy subjects; type: in vivo, human; conditions: for CL/F / AUC(0-inf) / Cmax / half-life / Vd/F: geometric mean (CV%); for AUC(0-inf) / Cmax / half-life / Vd/F / Tmax: both sexes, human, plasma; for Vd/F: read-out: Vz/F; for Tmax: median (min–max)
Experimental: (§1) This was an open-label, parallel-group, fixed-sequence study in healthy male and female subjects conducted in two parts, Part A and Part B. Part A investigated the effect of CYP3A induction by steady-state rifampin on the single-dose PK of 320 mg zanubrutinib, and Part B investigated the effect of CYP3A inhibition by steady-state itraconazole on the single-dose PK of 20 mg zanubrutinib.
(§2) In Part A, participants received a single oral dose of zanubrutinib (320 mg) in the fasted state on Day 1 and Day 10. Oral rifampin (600 mg/day, Rifampin, VersaPharm Inc., Marietta, GA, USA) was administered once daily in the fasted state on Days 3 through 11. In Part B, participants received a single oral dose of zanubrutinib (20 mg) in the fasted state on Day 1 and Day 6. Oral itraconazole (200 mg/day, Sporanox® capsules, Janssen Pharmaceuticals, Titusville, NJ, USA) was administered once-daily approximately 30 min after completing a meal on Days 3, 4, 5, and 7, and in the fasted state on Day 6.
(§3) Serial blood samples were collected with zanubrutinib alone and when combined with rifampin or itraconazole for the measurement of zanubrutinib plasma concentrations. Plasma samples were collected at predose, 0.5, 1, 1.5, 2, 3, 4, 6, 8, 12, 24, 36, and 48 h postdose on Day 1 and Day 10 in Part A and on Day 1 and Day 6 in Part B.
(§4) Plasma concentrations of zanubrutinib were determined using validated high-performance liquid chromatography coupled with tandem mass spectrometry (HPLC–MS/MS) (Xenobiotic Laboratories, NJ, USA). Protein precipitation was utilized to extract the analyte and internal standard from human plasma containing dipotassium ethylenediaminetetraacetic acid (K2EDTA) as anticoagulant. The analytical method utilized a reversed-phase HPLC column (Supelco Ascentis Express C18 20 × 2.1 mm, 2.7 µm) with a gradient flow of 0.1% formic acid in water (Mobile Phase A) and methanol:acetonitrile (1:1) (Mobile Phase B) at a rate of 0.5 mL/min. The analyte and internal standard were detected using an AB Sciex API-4000 LC–MS/MS system equipped with a positive ESI ion detection.
(§5) The calibration range of zanubrutinib in the assay was 1.00 to 1000 ng/mL using a 50 μL aliquot of plasma, with the lower limit of quantification of 1.00 ng/mL.
(§6) Noncompartmental PK analysis was conducted using the Phoenix® WinNolin® software (Version 6.4). PK parameters were derived for zanubrutinib alone and in combination with rifampin or itraconazole, including area under the plasma concentration–time curve (AUC), maximum observed plasma concentration (Cmax), time of the maximum observed plasma concentration (tmax), apparent terminal elimination half-life (t1/2), apparent total oral clearance (CL/F), and apparent volume of distribution during the terminal elimination phase (Vz/F). Log-transformed area under the curve from time 0 extrapolated to time t (AUC0–t), area under the curve from time 0 extrapolated to infinite time (AUC0–∞), and Cmax of zanubrutinib were analyzed using a mixed model for each part of the study, including treatments as a fixed effect and subject as a random effect. Estimates of geometric mean ratios (GMRs) and the corresponding 90% confidence intervals (CIs) were derived for the comparisons of AUC0–∞, and Cmax as follows:
Part A: zanubrutinib coadministration with rifampin (test) versus zanubrutinib alone (reference),

[2] = Part B: single-dose PK of 20 mg zanubrutinib alone and with steady-state itraconazole (CYP3A inhibition) in healthy subjects; type: in vivo, human; conditions: for CL/F / AUC(0-inf) / Cmax / half-life / Vd/F: geometric mean (CV%); for AUC(0-inf) / Cmax / half-life / Vd/F / Tmax: both sexes, human, plasma; for Vd/F: read-out: Vz/F; for Tmax: median (min–max)
Experimental: as §1, §2, §3, §4, §5, §6
Part B: zanubrutinib coadministration with itraconazole (test) versus zanubrutinib alone (reference).

[3] = Safety and tolerability (TEAEs, laboratory, vital signs, QTcF) in healthy subjects, Parts A and B; type: in vivo, human
Description: Treatment-emergent adverse events (TEAEs) are summarized by part, treatment, National Cancer Institute Common Terminology Criteria for Adverse Events (v4.03) grade, and relationship to study drugs (zanubrutinib, rifampin, and itraconazole). The frequency of TEAEs is summarized by part, treatment, and Medical Dictionary for Regulatory Activities (MedDRA) system organ class (SOC) and preferred term. The summary and frequency TEAE tables are presented for all causalities and for those TEAEs considered related to the study drugs.

[4] = cited from earlier work
[5] = system: cytochrome P450 3A (CYP3A); set-up: method as in unpublished data; conditions: human liver microsomes; ref unpublished data; cited from earlier work
[6] = cited from earlier work; remark: listed apart in the source
[7] = 320 mg zanubrutinib with 600 mg rifampin vs alone
[8] = oral, 320 mg zanubrutinib + 600 mg rifampin QD, Day 10
[9] = oral, 320 mg, Asian subjects, Part A Day 1, 320 mg zanubrutinib alone
[10] = oral, 320 mg, Non-Asian subjects, Part A Day 1, 320 mg zanubrutinib alone
[11] = oral, Asian subjects, Part A Day 10, zanubrutinib + rifampicin
[12] = oral, Non-Asian subjects, Part A Day 10, zanubrutinib + rifampicin
[13] = oral, 320 mg zanubrutinib + 600 mg rifampin QD
[14] = oral, 320 mg zanubrutinib alone
[15] = zanubrutinib in combination with rifampin versus zanubrutinib alone
[16] = 20 mg zanubrutinib with 200 mg itraconazole vs alone
[17] = oral, 20 mg zanubrutinib + 200 mg itraconazole QD, Day 6
[18] = oral, 20 mg, Asian subjects, Part B Day 1, 20 mg zanubrutinib alone
[19] = oral, 20 mg, Non-Asian subjects, Part B Day 1, 20 mg zanubrutinib alone
[20] = oral, Asian subjects, Part B Day 6, zanubrutinib + itraconazole
[21] = oral, Non-Asian subjects, Part B Day 6, zanubrutinib + itraconazole
[22] = oral, 20 mg zanubrutinib + 200 mg itraconazole QD
[23] = zanubrutinib in combination with itraconazole versus zanubrutinib alone
[24] = patients with B-cell malignancies

- CL/F ([1]; 320 mg zanubrutinib + 600 mg rifampin QD): 1249 L/h and 1249 (43) L/h
- CL/F ([1]; 320 mg zanubrutinib alone): 93 L/h and 93 (36) L/h
- decrease of AUC0–∞ on coadministration with rifampin [1, 7]: 13.5 fold
- decrease of Cmax on coadministration with rifampin [1, 7]: 12.6 fold
- AUC(0-inf) [1, 8]: 261 ng·h/mL
- Cmax [1, 8]: 42 ng/mL
- Cmax ([1]; oral, 320 mg, 320 mg zanubrutinib alone, Day 1): 532 ng/mL
- AUC(0-inf) [1, 9]: 3460 ng·h/mL
- Cmax [1, 9]: 543 ng/mL
- AUC(0-inf) [1, 10]: 3410 ng·h/mL
- Cmax [1, 10]: 525 ng/mL
- AUC(0-inf) [1, 11]: 213 ng·h/mL
- Cmax [1, 11]: 41 ng/mL
- AUC(0-inf) [1, 12]: 293 ng·h/mL
- Cmax [1, 12]: 43 ng/mL
- half-life [1, 13]: 288 min
- Vd/F [1, 13]: 8660 L
- Tmax [1, 13]: 2 h
- half-life [1, 14]: 408 min
- Vd/F [1, 14]: 914 L
- Tmax [1, 14]: 2 h
- AUC(0-inf) ([1]; po, 320 mg, 320 mg zanubrutinib alone, single oral dose, fasted, Day 1): 3520 ng·h/mL
- AUC0–∞ geometric ratio of adjusted means (90% CI) [1, 15]: 7.4% and 7.4 (6.0, 9.1) %
- Cmax geometric ratio of adjusted means (90% CI) [1, 15]: 7.9% and 7.9 (6.6, 9.5) %
- CL/F ([2]; 20 mg zanubrutinib + 200 mg itraconazole QD): 29 (31) L/h
- CL/F ([2]; 20 mg zanubrutinib alone): 109 (29) L/h
- increase of AUC0–∞ on coadministration with itraconazole [2, 16]: 3.8 fold and < 4 fold
- increase of Cmax on coadministration with itraconazole [2, 16]: 2.6 fold
- AUC(0-inf) [2, 17]: 693 ng·h/mL
- Cmax [2, 17]: 122 ng/mL
- Cmax ([2]; oral, 20 mg, 20 mg zanubrutinib alone, Day 1): 48 ng/mL
- AUC(0-inf) [2, 18]: 174 ng·h/mL
- Cmax [2, 18]: 50 ng/mL
- AUC(0-inf) [2, 19]: 192 ng·h/mL
- Cmax [2, 19]: 46 ng/mL
- AUC(0-inf) [2, 20]: 694 ng·h/mL
- Cmax [2, 20]: 124 ng/mL
- AUC(0-inf) [2, 21]: 693 ng·h/mL
- Cmax [2, 21]: 120 ng/mL
- half-life [2, 22]: 258 min
- Vd/F [2, 22]: 178 L
- Tmax [2, 22]: 2 h
- Vd/F ([2]; oral, 20 mg zanubrutinib alone): 341 L
- half-life ([2]; oral, 20 mg zanubrutinib alone, terminal phase may not be adequately characterized): 132 min
- Tmax ([2]; oral, 20 mg zanubrutinib alone): 1.5 h
- AUC(0-inf) ([2]; po, 20 mg, 20 mg zanubrutinib alone, single oral dose, fasted, Day 1): 184 ng·h/mL
- AUC0–∞ geometric ratio of adjusted means (90% CI) [2, 23]: 378% and 378 (344, 415) %
- Cmax geometric ratio of adjusted means (90% CI) [2, 23]: 257% and 257 (226, 291) %
SMILES: C=CC(=O)N1CCC([C@@H]2CCNc3c(C(N)=O)c(-c4ccc(Oc5ccccc5)cc4)nn32)CC1 [zanubrutinib, Zanubrutinib]
- PK parameters, Asian versus non-Asian subjects ([1]; 320 mg zanubrutinib alone on Day 1 and with 600 mg rifampin on Day 10): comparable between Asian and non-Asian subjects
- PK, Asian versus non-Asian subjects ([2]; 20 mg zanubrutinib alone on Day 1 and with 200 mg itraconazole on Day 6): comparable between Asian and non-Asian subjects
- overall incidence of TEAEs ([3]; both Part A and Part B): less than 30%
- severity of TEAEs / SAEs / discontinuation ([3]; both parts, NCI CTCAE v4.03): no subject reported a TEAE higher than Grade 2 or an SAE, and no subject discontinued due to a TEAE
- QTcF ([3]; during the study): No subject had a QTcF value > 450 ms or an increase from baseline in QTcF of > 60 ms
- tolerability ([3]; single doses of 320 mg and 20 mg zanubrutinib alone or with 600 mg rifampin / 200 mg itraconazole, healthy subjects): well tolerated
- mean half-life ([4]; patients with B-cell malignancies, PK generally assessed only for 8 h post-dose): 2 to 4 h
- tolerability ([4]; patients with B-cell malignancies, total daily doses 40 to 320 mg): generally well tolerated
- accumulation after repeated dosing [4, 24]: minimal accumulation
- time of Cmax after oral dosing [4, 24]: approximately 2 h
- dose dependence of exposure ([4]; total daily doses of 40–320 mg): increased in a dose-proportional manner
- pathway of oxidative metabolism [5]: largely mediated through the cytochrome P450 3A (CYP3A) pathway

SMILES: C=CC(=O)N1CCC[C@@H](n2nc(-c3ccc(Oc4ccccc4)cc3)c3c(N)ncnc32)C1 [ibrutinib]
- increase in AUC with ketoconazole [6]: 24 fold

SMILES: CC#CC(=O)N1CCC[C@H]1c1nc(-c2ccc(C(=O)Nc3ccccn3)cc2)c2c(N)nccn12 [acalabrutinib]
- decrease in AUC with rifampin [6]: 77%
- increase in AUC with itraconazole [6]: 5.1 fold
